From patent US20080305157A1, “Encapsulation and separation of charged organic solutes inside catanionic vesicles” (University of Maryland Office of Technology …, priority 2007, published 2008)
Several values for one entry are separate records, joined by “and”; a condition that tells them apart may be missing. Identical values can stand only once. Counter-ions that a name gives are not always drawn.

Experiments:
[1] = format: physicochemical
Procedure: A more general procedure based on SEC that can be applied to a wide range of solutes, including non-self-quenching and non-fluorescent ones was also used. The initial vesicle-solute mixture was purified using SEC (as described above) to remove the free, unencapsulated solute. The sample was then checked for release of solute from the vesicles over the course of several weeks. For this purpose, small-scale separations using quick-spin columns pre-packed with Sephadex G50 (fine) were performed (column from Roche, additional beads for repacking the columns from Sigma). On a specific day, a 100 μL aliquot was run through a quick-spin column by centrifugation (3000 rpm, 15 s), and the eluted fraction was evaluated using UV-vis spectroscopy. Any solute that had been released from the vesicles was retained by the quick-spin column. Therefore, the amount of solute eluted by the column corresponded to the solute still encapsulated by the vesicles. The UV-vis absorption value for the eluted sample was divided by the corresponding value obtained on day zero (immediately after SEC) to yield a fraction of solute that remains encapsulated in the vesicles. This method directly yielded the apparent encapsulation, ε, as a function of time. […]

[2] = Separation of oppositely charged solute mixtures with catanionic vesicles by SEC; format: physicochemical; conditions: for Dye carried through SEC column within the V^+ vesicle band / Dye in the V^− vesicle band emerging from SEC column: equimolar CF and R6G, total dye 0.5 mM; for Dye carried through SEC column within the V^+ vesicle band: V^+ vesicles; for Dye in the V^− vesicle band emerging from SEC column: V^− vesicles; for Separation of LY and Dox by catanionic vesicles in SEC: total compound concentration 1 mM
Procedure: Catanionic vesicles were prepared with equimolar mixtures of two solutes, the cationic organic dye rhodamine 6G (R6G) and the anionic dye carboxyfluorescein (CF). The total solute concentration was maintained at either 0.5 or 1.0 mM, and experiments were done with both positively charged vesicles (V^+) (excess of cationic CTAT) and negatively charged vesicles (V^−) (excess of anionic SDBS) formed from cetyltrimethylammonium tosylate (CTAT) and sodium dodecylbenzenesulfonate (SDBS).
Experiments with these solute mixtures were performed and analyzed by performing size exclusion chromatography on the sample and measuring the dye concentration of each fraction to obtain an apparent encapsulation value, ε, for each dye (see below). The dye concentration in each fraction was determined by UV-vis spectroscopy. To account for the overlapping of the dye spectra, we subtracted a scaled spectrum of pure R6G from the total spectrum in order to find the peak absorbance of CF.

[3] = Apparent encapsulation efficiency (ε) of solutes in vesicles by SEC and UV-vis; format: physicochemical; conditions: 1 wt% surfactant, 1 mM solute; for ε (Apparent Encapsulation Efficiency) SDBS-Rich V^−: V^− vesicles 3:7 w/w CTAT:SDBS; for ε (Apparent Encapsulation Efficiency) CTAT-Rich V^+: V^+ vesicles 7:3 w/w CTAT:SDBS
Procedure: For the determination of encapsulation efficiencies, vesicles were prepared using aqueous solutions containing 1.0 mM carboxyfluorescein (CF) dye. The formation of CTAT-rich vesicles (7:3 CTAT to SDBS w/w) appeared to be inhibited at CF concentrations of 5 mM or greater. High concentrations of CF (and similarly, other solutes) tended to disrupt the vesicles and lead to precipitation over time. Vesicle stability appeared to be unaffected when the solute concentration is kept below 5 mM, and at these concentrations solute encapsulation does occur. For CF, a pH ˜9 was required in order to fully dissolve the dye, and the stock solutions were adjusted accordingly. The CF/CTAT/SDBS solutions were stirred for 15-30 min and the resulting vesicle solutions were allowed to equilibrate in the dark at room temperature for at least 48 h. Dynamic light scattering (DLS) was then used to confirm vesicle formation. SDBS-rich vesicles (e.g., 3:7 CTAT to SDBS w/w) could be prepared with higher CF concentrations (up to ca. 100 mM); however CF encapsulation in these vesicles was reduced relative to that of CTAT-rich vesicles and in many cases CF encapsulation by SDBS-rich vesicles (i.e., the formation of distinct bands in the chromatography column, see below) was not achieved.
(§1) The apparent encapsulation efficiencies of the two vesicle preparations, V^+ and V^−, were also evaluated for the other solute molecules shown in FIG. 9. A solute concentration of 1 mM was used in all cases. Lucifer yellow (LY) is dianionic in water and Sulforhodamine 101 (SR101) is monanionic. […] Doxorubicin hydrochloride (Dox) is a cationic drug with a pKa of ˜7.619 that has been used to treat a variety of cancers. […] In each case, vesicles were prepared using aqueous solutions of the solute at a concentration of 1 mM. The solute/CTAT/SDBS mixtures were stirred for 30-60 min, or overnight, and the resulting vesicle solutions were allowed to equilibrate in the dark at room temperature for at least 48 h. Thereafter, the samples were passed through a 25 mm syringe filter (0.45 μm mesh) to remove any impurities. Dynamic light scattering was conducted to confirm vesicle formation and to measure the average vesicle size.
To measure the apparent encapsulation efficiency ε, size exclusion chromatography (SEC) was used to separate the free solute from that encapsulated by the vesicles. A 2×25 cm column packed with Sephadex G50 resin (medium mesh, Amersham Biosciences) or a 1.3 cm×21 cm SEC column packed with Sephadex G50 resin (medium mesh, from Amersham Biosciences) was used. An aliquot of the vesicle-solute sample was run through the SEC column.
During elution, vesicle solutions divided into bands that were visible with the naked eye or by UV lamp, e.g., in the case of CF dye containing vesicles, two clear bands, the leading band containing the dye-bearing vesicles and the second band containing the free dye. During elution, fractions were collected and analyzed, and a series of such fractions for a typical experiment is shown in FIG. 6 (the solute in FIG. 6 is CF). The band containing the vesicles was collected for further studies of vesicle leakage, as described below. Dynamic light scattering was used to determine which of the eluted fractions contained vesicles, and the vesicles were consistently found to elute at 5.5 ml, total elution volume.
The amount of solute in each fraction was determined using UV-vis spectroscopy (Hitachi U-3010 Spectrometer). The encapsulation efficiency (ε) value is defined as the amount of encapsulated solute relative to the total initial amount of solute:
V designates volume, A designates absorbance, i denotes initial values taken from the original preparation, and f denotes values taken from the fractions eluted from the SEC column shown by dynamic light scattering to contain vesicles. Thus, the value of ε gives percentage of dye that is captured by the vesicles during their preparation. […]

[4] = Long-term CF release from vesicles by self-quenching fluorescence, R(t); format: physicochemical
Procedure: The self-quenching behavior of carboxyfluorescein (CF) was used to monitor dye efflux from vesicles. CF is a widely used probe for vesicle encapsulation due to its ability to undergo efficient self-quenching of fluorescence at millimolar concentrations. For example, when 60 mM CF is entrapped in vesicles, its fluorescence intensity is reduced by 60-80%, but as the dye is released from the vesicle, and thus diluted by the surrounding buffer, its fluorescence intensity increases.
Samples were checked on a specific day by placing a fixed aliquot (1.5 mL) into a 1 cm cuvette and monitoring its emission at 520 nm while exciting at 490 nm using a Spex Fluorolog-3 spectrometer. The intensity was monitored for several minutes to establish the baseline fluorescence intensity, which contains a contribution from both free and encapsulated dyes. After the baseline was established, 100 uL of 10% (w/w) aqueous Triton X-100 was added to disrupt the vesicles. Vesicle disruption results in the release of all dye molecules into solution and a concomitant increase in fluorescence. For these experiments, a substantial volume of sample was prepared on the first day and run on the SEC column to remove free dye. […] The traces show the emission intensity before and after the addition of Triton X-100, a nonionic detergent that disrupts both lipid and surfactant vesicles. […] As expected, the largest jump occurs for the freshly prepared vesicle solution where all the dye is encapsulated in the vesicles. We compare the magnitude of the jump on Day x with the highest jump (Day 0) and thereby obtain the fraction of the dye released on day x, R(t=x), the calculation of which is described below. […]
To monitor long-term leakage rates, the fraction of dye released as a function of time, R(t), was calculated for a given day. This quantity measures the fraction of encapsulation on Day x relative to the initial value on Day 0:
where F(initial) and F(final) are the fluorescence intensities before and after adding the Triton X-100. […]

[5] = Vesicle radius by dynamic light scattering (DLS); format: physicochemical; conditions: for Vesicle Radius after SEC by DLS CTAT-Rich V^+: V^+ vesicles with 1 mM solute; for Vesicle Radius after SEC by DLS SDBS-Rich V^−: V^− vesicles with 1 mM solute
Procedure: Vesicle sizes in solution were monitored using dynamic light scattering (DLS) on a Photocor-FC instrument. The light source was a 5 mW laser at 633 nm and the scattering angle was 90°. A logarithmic correlator was used to obtain the autocorrelation function, which was analyzed by the method of cumulants to yield a diffusion coefficient. The apparent hydrodynamic size of the vesicles was obtained from the diffusion coefficient through the Stokes-Einstein relationship. The intensity (total counts) of the signal was also recorded for each sample.
as §1
A low solute concentration, e.g., 1 mM, was used in the experiments to ensure the stability of our vesicle formulations. […] Even at a concentration of 1 mM, some solutes may have a large effect on vesicle morphology. To study these aspects in some detail, dynamic light scattering (DLS) and small angle neutron scattering (SANS) were used. DLS was performed on purified vesicles obtained from the SEC column (after removing all the free solute); the sizes of solute-containing vesicles were compared with the sizes of neat vesicles (no solute). DLS gave radii of 74 nm for neat V^+ vesicles and 70 nm for neat V^− vesicles. Passing these neat vesicles through an SEC column changed their sizes slightly and the new radii were 81 nm for V^+ and 98 nm for V^− vesicles. […] However, while 1 mM of the anionic solute Lucifer yellow (LY) had no effect on V^− vesicles, it induced a 2.5 fold increase in the radii of V^+ vesicles.

[6] = Dye adsorption: dye added to preformed vesicles, then SEC; format: physicochemical
[7] = Apparent encapsulation efficiency (ε) of solutes in vesicles by SEC and UV-vis; format: physicochemical; conditions: inner water pool only
[8] = cited from earlier work

Row | Compound | Half life in the vesicles [1] [days] | Retention of solute relative to liposomes ([1]; catanionic vesicles vs EYPC liposomes) | Dye carried through SEC column within the V^+ vesicle band [2] | Dye in the V^− vesicle band emerging from SEC column [2] | ε (Apparent Encapsulation Efficiency) SDBS-Rich V^− [3] | Release rate slower than from EYPC vesicles ([4]; CF from V^+ vesicles vs EYPC vesicles) | Period over which CF dye is released ([4]; EYPC vesicles) | Release of CF ([4]; V^+ vesicles, after 27 days) | Effect of solute on V^+ vesicle radii ([5]; 1 mM solute) | Effect of solute on V^− vesicle radii ([5]; 1 mM solute) | Vesicle Radius after SEC by DLS CTAT-Rich V^+ [5] [nm] | Vesicle Radius after SEC by DLS SDBS-Rich V^− [5] [nm] | Electrostatic adsorption contribution to overall apparent encapsulation efficiency ε ([6]; CF added to pre-formed V^+ vesicles vs vesicles formed with CF) | Actual encapsulation efficiency for dye in the V^+ water pool [7] | Separation of LY and Dox by catanionic vesicles in SEC [2] | ε (Apparent Encapsulation Efficiency) CTAT-Rich V^+ [3] [%] | ε (Apparent Encapsulation Efficiency) SDBS-Rich V^− ([3]; hydrochloride) [%] | pKa [8] | ε when dye added to pre-made vesicles, as share of Table 1 value ([6]; R6G added to pre-made V^− vesicles) | Increase in the radii of V^+ vesicles ([5]; 1 mM solute, vs neat vesicles) [fold]
1 | 5(6)-carboxyfluorescein [CF] | 114 | 40-60 times | 31% | negligible | 1.0 ± 0.4% | at least 40 times | about 5 days | approximately 20% | essentially unchanged | essentially unchanged | 87 ± 5 | 91 ± 8 | about 75% | ca. 5% |  |  |  |  |  | 
2 | COc1cccc2c1C(=O)c1c(O)c3c(c(O)c1C2=O)C[C@@](O)(C(=O)CO)C[C@@H]3O[C@H]1C[C@H](N)[C@H](O)[C@H](C)O1 [Dox, doxorubicin hydrochloride] |  |  |  |  |  |  |  |  |  |  | 143 ± 32 | 93 ± 4 |  |  | Very efficient separation | 0 | 55 | ~7.619 |  | 
3 | CCN=c1cc2oc3cc(NCC)c(C)cc3c(-c3ccccc3C(=O)OCC)c-2cc1C.Cl [R6G, rhodamine 6G] |  |  | no detectable | 88% | 72% and 72 ± 3% |  |  |  |  |  | 156 ± 24 | 109 ± 16 |  |  |  | 0.07 ± 0.1 |  |  | ca. 85% | 
4 | O=S(=O)([O-])c1cc(S(=O)(=O)O)ccc1C1=c2cc3c4c(c2Oc2c1cc1c5c2CCCN5CCC1)CCC[N+]=4CCC3 [SR 101, sulforhodamine 101] |  |  |  |  | 8.2% |  |  |  |  |  | 122 ± 38 | 84 ± 7 |  |  |  | 32.8 |  |  |  | 
5 | Lucifer yellow [LY] |  |  |  |  | 4% |  |  |  |  | no effect | 208 ± 18 | 96 ± 3 |  |  | Very efficient separation | 40 ± 20 |  |  |  | 2.5
